Columns and labels:
serotonin 1A receptor = biological target: T1, serotonin 1A receptor (Rattus norvegicus, UniProt P19327); experiment: Serotonin 1A receptor binding experiment (3H-8-OH-DPAT); conditions: rat cortex and hippocampal tissue; 0.5 nM 3H-8-OH-DPAT; IC50 in M; read-out: -logIC50 5-HT1A (converted)
T1 construct: the cortex and hippocampal tissue were extracted from the brain; from tissue; host or cells: brain cortex and hippocampus of 7-week-old male S.D. rats, washed membrane homogenate
T1 sequence (P19327 1-422): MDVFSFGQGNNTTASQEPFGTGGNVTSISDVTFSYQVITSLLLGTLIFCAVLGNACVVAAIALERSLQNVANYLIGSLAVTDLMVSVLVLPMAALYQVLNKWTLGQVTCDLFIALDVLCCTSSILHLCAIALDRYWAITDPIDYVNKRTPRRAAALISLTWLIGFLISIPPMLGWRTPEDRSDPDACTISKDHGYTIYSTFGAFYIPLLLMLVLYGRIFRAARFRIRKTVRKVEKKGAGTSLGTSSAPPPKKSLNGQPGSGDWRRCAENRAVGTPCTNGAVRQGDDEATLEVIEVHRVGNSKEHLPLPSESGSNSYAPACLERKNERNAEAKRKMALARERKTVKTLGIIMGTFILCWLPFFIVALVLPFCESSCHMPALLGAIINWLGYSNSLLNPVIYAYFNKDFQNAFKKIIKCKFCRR

serotonin 2 receptor = biological target: T2, serotonin 2 receptor (Rattus norvegicus, UniProt P14842); experiment: Serotonin 2 receptor binding experiment (3H-ketancerine); conditions: rat cortex and hippocampal tissue; 0.5 nM 3H-ketancerine; IC50 in M; read-out: -logIC50 5-HT2 (converted)
T2 construct: the cortex and hippocampal tissue were extracted from the brain; from tissue; host or cells: brain cortex and hippocampus of 7-week-old male S.D. rats, washed membrane homogenate
T2 sequence (P14842 whole entry): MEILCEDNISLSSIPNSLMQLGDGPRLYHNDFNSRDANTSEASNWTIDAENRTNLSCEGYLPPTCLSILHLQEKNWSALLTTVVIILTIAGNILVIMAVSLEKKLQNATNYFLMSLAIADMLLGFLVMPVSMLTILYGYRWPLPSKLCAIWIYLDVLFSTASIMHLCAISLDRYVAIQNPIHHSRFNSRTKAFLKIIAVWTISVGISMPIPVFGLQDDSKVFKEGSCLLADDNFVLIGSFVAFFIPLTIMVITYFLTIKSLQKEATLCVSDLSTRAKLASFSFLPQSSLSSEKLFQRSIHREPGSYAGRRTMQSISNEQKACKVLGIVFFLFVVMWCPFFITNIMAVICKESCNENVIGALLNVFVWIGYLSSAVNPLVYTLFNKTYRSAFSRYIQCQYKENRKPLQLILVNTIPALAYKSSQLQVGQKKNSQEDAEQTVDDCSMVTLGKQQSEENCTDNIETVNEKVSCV
Procedure, shortened: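 Membranes were prepared from cortex and hippocampus of 7-week male SD rats in 50 mM Tris-HCl pH 7.7 and preincubated 20 min at 37 °C to remove endogenous serotonin.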

Structure (SMILES)	IC50 (serotonin 1A receptor) [nM]	IC50 (serotonin 2 receptor) [nM]
Cc1cccc2c1OC(CNCCNC(=O)C13CC4CC(CC(C4)C1)C3)CO2 (stereo not shown) [Compound 1, N-{[2-(8-methyl-1,4-benzodioxan-2-ylmethyl)amino]ethyl}tricyclo[3,3,1,1^3, ^7]decane-1-carboxyamide]	1.17	30.2
O=C(NCCN1CCN(c2ncccn2)CC1)C12CC3CC(CC(C3)C1)C2 [WY-50324, reference compound]	1.26	200

From patent US5480905A, “Benzodioxane derivatives” (Chugai Seiyaku Kabushiki Kaisha, priority 1991, dated 1996)
